Results from PMC6270011, “Design and Synthesis of Arylthiophene-2-Carbaldehydes via Suzuki-Miyaura Reactions and Their Biological Evaluation” (Molecules, 2013).

Biological target: urease enzyme (Canavalia ensiformis, UniProt P07374)
Details: for %age Activity at 25 μg (urease inhibition): 25 µg/mL; for %age Activity at 50 μg (urease inhibition): 50 µg/mL

Chain of urease enzyme (P07374 whole entry, looked up): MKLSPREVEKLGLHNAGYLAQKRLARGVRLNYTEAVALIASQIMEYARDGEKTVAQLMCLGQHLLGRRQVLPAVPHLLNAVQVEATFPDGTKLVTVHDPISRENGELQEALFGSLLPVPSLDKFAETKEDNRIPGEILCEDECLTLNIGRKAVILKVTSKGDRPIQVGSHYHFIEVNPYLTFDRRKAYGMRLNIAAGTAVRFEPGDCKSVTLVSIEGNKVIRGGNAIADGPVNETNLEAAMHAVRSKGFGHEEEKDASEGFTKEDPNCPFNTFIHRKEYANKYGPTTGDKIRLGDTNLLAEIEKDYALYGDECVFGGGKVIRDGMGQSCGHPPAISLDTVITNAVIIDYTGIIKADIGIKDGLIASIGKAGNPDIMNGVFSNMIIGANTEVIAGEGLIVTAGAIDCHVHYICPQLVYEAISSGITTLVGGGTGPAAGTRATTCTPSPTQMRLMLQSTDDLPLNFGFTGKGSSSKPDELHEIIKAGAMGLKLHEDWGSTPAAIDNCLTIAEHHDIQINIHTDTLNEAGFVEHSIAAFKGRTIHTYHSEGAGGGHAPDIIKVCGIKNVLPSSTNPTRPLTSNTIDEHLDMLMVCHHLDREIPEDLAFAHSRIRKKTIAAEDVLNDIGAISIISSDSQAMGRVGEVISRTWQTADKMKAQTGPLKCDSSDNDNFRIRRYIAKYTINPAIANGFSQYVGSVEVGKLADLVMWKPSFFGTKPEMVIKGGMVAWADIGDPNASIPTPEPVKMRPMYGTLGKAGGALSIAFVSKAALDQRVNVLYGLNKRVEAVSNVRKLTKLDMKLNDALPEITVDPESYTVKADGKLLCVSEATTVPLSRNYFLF

Compound | %age Activity at 25 μg (urease inhibition) | %age Activity at 50 μg (urease inhibition)
N#Cc1cc(-c2csc(C=O)c2)cc(C(F)(F)F)c1 [2d, 3-(5-Formylthiophene-3-yl)-5-(trifloromethyl)benzonitrile] | 37 ± 0.0042% | 88.7 ± 0.005%
Cc1ccc(-c2csc(C=O)c2)cc1 [2e, 4-p-Tolylthiophene-2-carbaldehyde] | 44.5 ± 0.057% | 76.5 ± 0.05%
O=Cc1cc(-c2ccc(F)c(Cl)c2)cs1 [2i, 4-(3-Chloro-4-fluorophenyl)thiophene-2-carbaldehyde] | 46.2 ± 0.0042% | 90.6 ± 0.05%
O=Cc1cc(-c2cc(C(F)(F)F)cc(C(F)(F)F)c2)cs1 [2b, 4-(3,5-Bis(trifloromethyl)phenyl)thiophene-2-carbaldehyde] | 35 ± 0.014% | 87.0 ± 0.084%
O=Cc1cc(-c2ccccc2)cs1 [2a, 4-Phenylthiophene-2-carbaldehyde] | 45 ± 0.0162% | 86.9 ± 0.012%
COc1ccc(-c2csc(C=O)c2)cc1 [2f, 4-(4-Methoxyphenyl)thiophene-2-carbaldehyde] | 42.3 ± 0.0007% | 80.2 ± 0.0017%
O=Cc1cc(-c2ccc(Cl)c(Cl)c2)cs1 [2h, 4-(3,4-Dichlorophenyl)thiophene-2-carbaldehyde] | 44 ± 0.084% | 86.4 ± 0.44%
Cc1cc(C)cc(-c2csc(C=O)c2)c1 [2g, 4-(3,5-Dimethylphenyl)thiophene-2-carbaldehyde] | 42.5 ± 0.0070% | 87.2 ± 0.5%
O=Cc1cc(-c2ccc(Cl)s2)cs1 [2c] | 44 ± 0.0042% | 87.8 ± 0.006%
Cc1ccc(-c2csc(C=O)c2)s1 [2j, 5-Methyl-2,3-bisthiophene-5-carbaldehyde] | 2 ± 0.219% | 9.7 ± 0.2%
